20 molecules from patent publication US10590106B2, “Certain chemical entities, compositions, and methods” (NeuPharma, Inc., priority 2012, dated 2020) can be followed below.

pIC50: −log10 of the molar value. Some results are limits rather than exact numbers.

The test system of one experiment is A549 cells. The experiment can be described thus: Inhibition of cancer cell growth, MTT or MTS assay, A549. The experiment is classed as cell-based. The note with it: Homo sapiens, 72 h incubation. The method, then: (§1) Inhibition of cell growth by compounds was measured using MTT or MTS assay. Tumor cell lines were purchased from ATCC (American Type Culture Collection, Manassas, Va.). All cell lines were maintained in RPMI 1640 (Hyclone) supplemented with 10% fetal bovine serum (FBS, Hyclone), glutamine (2 mM, Hyclone), and antibiotics (penicillin 100 U/mL and streptomycin 50 μg/mL) at 37° C. in a humidified atmosphere of 5% CO2 in air. Taxol (as a positive control, Sigma) and compounds were dissolved in DMSO (Sigma), and the final concentration of DMSO in the medium was 1%. Tumor cells were plated in 96-well plates at densities of about 2000 (A375) or 4000 (A549 and Colo205) cells/well of a 96-well plate and allowed to adhere/grow for 24 h. They were then treated with various concentrations of drug and incubated for 72 h. For MTT method, medium was then removed by inverting and tapping the plates. 100 μL of MTT (0.5 mg/ml) was added to each well followed by an incubated at 37° C. for 4 h. MTT was then removed and 200 μL of DMSO was added to each well, and the ODs at 570 nm were measured after a 5 second shaking cycle in a 96-well spectrophotometer. For MTS method, 20 μL MTS (CellTiter 96 Aqueous One Solution, Promega) was added to each well followed by an incubated at 37° C. for 2-4 h, solutions were then directly put in a 96-well spectrophotometer, and the ODs at 490 nm were measured.
(§2) All concentrations of compounds were tested in triplicate and controls were averaged over 4 wells. IC50 was calculated by plotting the concentration of compound vs the percentage of inhibition in treated wells using GraphPad Prism 5. […] The scale utilized in Tables […] is as follows: +++ less than 1000 nM; ++ between 1000 nM and 5000 nM; and + greater than 5000 nM. The scale utilized in Table 8 is as follows: +++ less than 2000 nM; ++ between 2000 nM and 5000 nM; and + greater than 5000 nM.
In general terms: Tetrazolium dyes change colour on reduction, which living cells bring about.

The target of another experiment is KDR (VEGFR2) (Homo sapiens (Human), UniProt P35968). The experiment can be described thus: Inhibitory activity against kinase KDR, Z'-LYTE method (Invitrogen). The note with it: 1 μM compound; read-out: Inhibition (% inhibition at 1 μM) against KDR. The experiment is classed as biochemical. The method, then: Inhibitory activities of compounds against KDR (VEGFR2) were also measured by Invitrogen using Z′-LYTE® Method as described above with the following modification. The 2× KDR (VEGFR2)/Tyr 01 mixture is prepared in 50 mM HEPES pH 7.5, 0.01% BRIJ-35, 10 mM MgCl2, 1 mM EGTA. The final 10 μL Kinase Reaction consists of 0.5-11.7 ng KDR (VEGFR2) and 2 μM Tyr 01 in 50 mM HEPES pH 7.5, 0.01% BRIJ-35, 10 mM MgCl2, 1 mM EGTA. After the 1 hour Kinase Reaction incubation, 5 μL of a 1:256 dilution of Development Reagent B is added.
The scale utilized in Table 5 is as follows: +++ less than 100 nM; and ++ greater than 100 nM

The next experiment has as its target BRAF V600E (Homo sapiens (Human), UniProt P15056, V600E). The experiment can be described thus: Inhibitory activity against kinase BRAF V600E, Z'-LYTE method (Invitrogen). The format is biochemical. The note with it: 1 μM compound; read-out: Inhibition (% inhibition at 1 μM) against BRAF V600E. The method, then:
Inhibitory activities Inhibitory activities of compounds against BRAF, and BRAF V600E were measured by Invitrogen using Z′-LYTE® Method as briefly described in the following. 4× Test compounds are dissolved in 1% DMSO. […] ATP solutions are diluted to a 4×ATP working concentration in Kinase Buffer (50 mM HEPES pH 7.5, 0.01% BRIJ-35, 10 mM MgCl2, 1 mM EGTA). Reaction started by 30-second shaking of mixture consisting of 2.5 μL 4× test compound, […] and 2.5 μL 4×ATP Solution on Bar-coded Corning, low volume NBS, black 384-well plate (Corning Cat. #3676). Then the mixture was incubated for 60-minute at room temperature for the kinase reaction, followed by addition of 5 μL of a 1:1024 dilution of development reagent A and 30-second plate shake. The mixture was then incubated for another 60-minute at room temperature for development reaction. Fluorescence was read by plate reader. IC50 was calculated by plotting the concentration of compound vs the percentage of inhibition in treated wells using GraphPad Prism 5.
Table 2 and 3 show % inhibition at 1 μM of several compounds of the invention against BRAF and BRAF V600E, respectively, using Z′-LYTE® method.
The scale utilized in Table 4 is as follows: +++ less than 100 nM; and ++ greater than 100 nM.

For another experiment, the system named is A375 cells. The experiment can be described thus: Inhibition of cancer cell growth, MTT or MTS assay, A375. The experiment is classed as cell-based. The note with it: Homo sapiens, A-375; 72 h incubation. The method, then:
as §1, §2

BRAF V600E, sequence (P15056 whole entry V600E): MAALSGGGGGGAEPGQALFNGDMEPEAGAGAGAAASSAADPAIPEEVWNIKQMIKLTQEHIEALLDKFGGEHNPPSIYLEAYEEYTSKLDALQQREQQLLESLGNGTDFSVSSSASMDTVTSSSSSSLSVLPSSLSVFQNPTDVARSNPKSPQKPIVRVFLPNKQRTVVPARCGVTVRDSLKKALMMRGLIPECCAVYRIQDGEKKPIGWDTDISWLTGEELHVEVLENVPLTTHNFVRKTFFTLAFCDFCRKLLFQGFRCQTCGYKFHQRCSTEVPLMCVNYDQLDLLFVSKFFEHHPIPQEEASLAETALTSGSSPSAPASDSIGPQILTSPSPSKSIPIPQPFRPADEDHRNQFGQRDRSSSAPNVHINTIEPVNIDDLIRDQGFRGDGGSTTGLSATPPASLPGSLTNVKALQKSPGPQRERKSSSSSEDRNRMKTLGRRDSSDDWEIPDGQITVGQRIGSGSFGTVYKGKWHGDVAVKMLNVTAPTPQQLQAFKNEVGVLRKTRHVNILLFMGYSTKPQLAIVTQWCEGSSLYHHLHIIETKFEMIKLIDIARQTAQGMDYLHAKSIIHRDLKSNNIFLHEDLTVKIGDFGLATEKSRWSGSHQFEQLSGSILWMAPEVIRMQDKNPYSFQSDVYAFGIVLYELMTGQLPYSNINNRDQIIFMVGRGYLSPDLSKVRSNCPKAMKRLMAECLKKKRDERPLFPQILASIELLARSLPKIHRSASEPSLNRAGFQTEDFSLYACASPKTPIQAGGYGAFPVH
KDR (VEGFR2), sequence (P35968 20-1356): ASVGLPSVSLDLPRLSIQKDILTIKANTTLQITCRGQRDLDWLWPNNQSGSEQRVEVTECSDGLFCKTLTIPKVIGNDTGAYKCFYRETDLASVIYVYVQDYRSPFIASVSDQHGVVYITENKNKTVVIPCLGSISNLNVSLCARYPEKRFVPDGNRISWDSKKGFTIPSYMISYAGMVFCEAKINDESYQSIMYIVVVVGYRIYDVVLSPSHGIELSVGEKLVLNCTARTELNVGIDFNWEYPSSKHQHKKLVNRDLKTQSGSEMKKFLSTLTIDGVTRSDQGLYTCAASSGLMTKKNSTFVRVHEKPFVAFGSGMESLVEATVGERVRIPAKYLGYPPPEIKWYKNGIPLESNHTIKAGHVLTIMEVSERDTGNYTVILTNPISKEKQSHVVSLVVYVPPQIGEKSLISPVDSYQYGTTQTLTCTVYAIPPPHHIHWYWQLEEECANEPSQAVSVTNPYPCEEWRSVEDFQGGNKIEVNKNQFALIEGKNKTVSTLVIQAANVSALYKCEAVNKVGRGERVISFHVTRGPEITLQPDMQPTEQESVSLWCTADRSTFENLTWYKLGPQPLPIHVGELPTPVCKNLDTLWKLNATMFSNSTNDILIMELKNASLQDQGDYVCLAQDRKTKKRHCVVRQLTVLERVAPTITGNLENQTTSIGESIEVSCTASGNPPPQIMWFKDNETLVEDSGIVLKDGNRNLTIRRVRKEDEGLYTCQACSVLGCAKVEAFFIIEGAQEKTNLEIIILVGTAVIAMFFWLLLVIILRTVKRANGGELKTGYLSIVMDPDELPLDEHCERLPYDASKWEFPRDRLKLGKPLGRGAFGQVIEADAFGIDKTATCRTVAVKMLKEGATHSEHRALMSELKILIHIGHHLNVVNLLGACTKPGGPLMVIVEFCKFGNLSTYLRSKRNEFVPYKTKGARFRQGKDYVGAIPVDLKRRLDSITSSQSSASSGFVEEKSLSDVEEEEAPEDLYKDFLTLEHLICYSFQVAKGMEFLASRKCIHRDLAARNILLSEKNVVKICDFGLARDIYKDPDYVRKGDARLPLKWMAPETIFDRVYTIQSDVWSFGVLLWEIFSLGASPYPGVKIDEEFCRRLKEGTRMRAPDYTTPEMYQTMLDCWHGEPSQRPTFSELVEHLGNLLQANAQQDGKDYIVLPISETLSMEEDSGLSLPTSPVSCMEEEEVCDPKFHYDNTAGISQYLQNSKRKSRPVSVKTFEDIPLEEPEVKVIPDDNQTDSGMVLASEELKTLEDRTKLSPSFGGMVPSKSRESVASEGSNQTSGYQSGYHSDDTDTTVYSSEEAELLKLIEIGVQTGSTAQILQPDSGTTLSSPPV

As usually defined, the pIC50 is the IC50 on a negative log10 scale, so that one unit is a factor of ten. A lower pIC50 goes with a large IC50. In general, inhibition refers to how much of the control response was suppressed. Take `O=C(Nc1ccc(F)c(Oc2ccc3nccnc3c2)c1)Nc1ccc(Cl)c(C(F)(F)F)c1` [Compound C011, 1-(4-chloro-3-(trifluoromethyl)phenyl)-3-(4-fluoro-3-(quinoxalin-6-yloxy)phenyl)urea]: the pIC50 is over 5.70 in the experiment with A549 cells and over 6.00 with A375 cells. Moreover, the inhibition at 1 µM was 70 to 89% at KDR (VEGFR2) and under 70% on BRAF V600E.

Take `O=C(Nc1cccc(C(F)(F)F)c1)Nc1ccc(F)c(Oc2ccc3ncc(N4CCOCC4)nc3c2)c1` [Compound C035, 1-(4-fluoro-3-((3-morpholinoquinoxalin-6-yl)oxy)phenyl)-3-(3-(trifluoromethyl)phenyl)urea]: the results for the negative-log IC50 (pIC50) with A549 cells and with A375 cells were 5.30 to 5.70 and over 6.00, respectively. The inhibition at 1 µM at KDR (VEGFR2) and on BRAF V600E was 70 to 89% in each case.

As to `CCCS(=O)(=O)Nc1ccc(F)c(Oc2ccc3ncc(N4CCOCC4)nc3c2)c1` [Compound C012, N-(4-fluoro-3-((3-morpholinoquinoxalin-6-yl)oxy)phenyl)propane-1-sulfonamide], the pIC50 in the experiment with A549 cells and in the experiment on A375 cells was under 5.30 in each case.

Turning to `O=C(Nc1ccc(F)c(Oc2ccc3ncc(N4CCOCC4)nc3c2)c1)c1cccc(C(F)(F)F)c1` [Compound C026, N-(4-fluoro-3-((3-morpholinoquinoxalin-6-yl)oxy)phenyl)-3-(trifluoromethyl)benzamide], the negative-log IC50 (pIC50) was 5.30 to 5.70 with A549 cells and 5.30 to 6.00 in the experiment on A375 cells. Further, the inhibition at 1 µM at KDR (VEGFR2) was over 89%; at BRAF V600E, 70 to 89%.

In the case of `O=C(Nc1cc(F)cc(Oc2ccc3nccnc3c2)c1)Nc1ccc(Cl)c(C(F)(F)F)c1` [Compound C022, 1-(4-chloro-3-(trifluoromethyl)phenyl)-3-(3-fluoro-5-(quinoxalin-6-yloxy)phenyl)urea], the negative logarithm of the IC50 (pIC50) in the experiment with A549 cells was over 5.70; in the experiment on A375 cells, over 6.00. Also, the inhibition at 1 µM at KDR (VEGFR2) and on BRAF V600E was 70 to 89% throughout.

With `O=C(Nc1cccc(C(F)(F)F)c1)Nc1ccc(F)c(Oc2ccc3nccnc3c2)c1` [Compound C024, 1-(4-fluoro-3-(quinoxalin-6-yloxy)phenyl)-3-(3-(trifluoromethyl)phenyl)urea], the figures for the pIC50 in the experiment on A549 cells and in the experiment with A375 cells were over 5.70 and 5.30 to 6.00, respectively. For the same molecule, the inhibition at 1 µM was 70 to 89% on KDR (VEGFR2) and over 89% at BRAF V600E.

Turning to `O=C(Nc1cc(F)cc(Oc2ccc3nccnc3c2)c1)c1cccc(C(F)(F)F)c1` [Compound C015, N-(3-fluoro-5-(quinoxalin-6-yloxy)phenyl)-3-(trifluoromethyl)benzamide], the pIC50 in the experiment on A549 cells and in the experiment with A375 cells was under 5.30 throughout. Also, the inhibition at 1 µM was under 70% at KDR (VEGFR2) and over 89% at BRAF V600E.

With `O=C(Nc1cc(F)cc(Oc2ccc3ncc(N4CCOCC4)nc3c2)c1)c1cccc(F)c1` [Compound C027, 3-fluoro-N-(3-fluoro-5-((3-morpholinoquinoxalin-6-yl)oxy)phenyl)benzamide], the pIC50 in the experiment on A549 cells was under 5.30; with A375 cells, 5.30 to 6.00. Also, the inhibition at 1 µM at KDR (VEGFR2) and on BRAF V600E was 70 to 89% in each case.

As to `O=C(Nc1ccc(F)c(Oc2ccc3nccnc3c2)c1)c1ccc(Cl)c(C(F)(F)F)c1` [Compound C010, 4-chloro-N-(4-fluoro-3-(quinoxalin-6-yloxy)phenyl)-3-(trifluoromethyl)benzamide], the figures for the pIC50 in the experiment on A549 cells and in the experiment with A375 cells were 5.30 to 5.70 and under 5.30, respectively. Moreover, the inhibition at 1 µM on KDR (VEGFR2) and at BRAF V600E was 70 to 89% each time.

As for `O=C(Nc1cccc(F)c1)Nc1cc(F)cc(Oc2ccc3nccnc3c2)c1` [Compound C020, 1-(3-fluoro-5-(quinoxalin-6-yloxy)phenyl)-3-(3-fluorophenyl)urea], the pIC50 in the experiment on A549 cells was 5.30 to 5.70; with A375 cells it was under 5.30. For the same molecule, the inhibition at 1 µM at BRAF V600E fell in the range of 70 to 89%.

With `O=C(Nc1ccc(Oc2ccc3nccnc3c2)cc1)c1cccc(F)c1` [Compound C077, 3-fluoro-N-(4-(quinoxalin-6-yloxy)phenyl)benzamide], the negative-log IC50 (pIC50) in the experiment on A549 cells is under 5.30; with A375 cells it was 5.30 to 6.00. For the same molecule, on BRAF V600E, the inhibition at 1 µM was under 70%.

Turning to `O=C(Nc1cccc(Oc2ccc3ncc(N4CCOCC4)nc3c2)c1)Nc1cccc(C(F)(F)F)c1` [Compound C046, 1-(3-((3-morpholinoquinoxalin-6-yl)oxy)phenyl)-3-(3-(trifluoromethyl)phenyl)urea], the negative-log IC50 (pIC50) in the experiment with A549 cells was 5.30 to 5.70; with A375 cells, 5.30 to 6.00. In addition, the inhibition at 1 µM at KDR (VEGFR2) is 70 to 89%; at BRAF V600E, over 89%.

Turning to `O=C(Nc1ccc(C(F)(F)F)cc1)Nc1ccc(Oc2ccc3nccnc3c2)cc1F` [Compound C097, 1-(2-fluoro-4-(quinoxalin-6-yloxy)phenyl)-3-(4-(trifluoromethyl)phenyl)urea], the negative logarithm of the IC50 (pIC50) in the experiment on A549 cells and in the experiment with A375 cells was under 5.30 in each case. Also, at BRAF V600E, the inhibition at 1 µM fell in the range of 70 to 89%.

For the molecule `O=C(Nc1ccc(Oc2ccc3nccnc3c2)cc1)c1ccc(Cl)c(C(F)(F)F)c1` [Compound C079, 4-chloro-N-(4-(quinoxalin-6-yloxy)phenyl)-3-(trifluoromethyl)benzamide], the pIC50 with A549 cells and with A375 cells was under 5.30 throughout. At BRAF V600E, the inhibition at 1 µM was under 70%.

On to `CCCS(=O)(=O)Nc1ccc(Oc2ccc3nccnc3c2)cc1` [Compound C080, N-(4-(quinoxalin-6-yloxy)phenyl)propane-1-sulfonamide], for which the negative-log IC50 (pIC50) in the experiment with A549 cells and in the experiment with A375 cells was under 5.30 throughout.

In the case of `O=C(Nc1cc(F)cc(Oc2ccc3nccnc3c2)c1)c1ccc(Cl)c(C(F)(F)F)c1` [Compound C016, 4-chloro-N-(3-fluoro-5-(quinoxalin-6-yloxy)phenyl)-3-(trifluoromethyl)benzamide], the pIC50 in the experiment on A549 cells and with A375 cells was under 5.30 each time. For the same molecule, at BRAF V600E, the inhibition at 1 µM is over 89%.

Consider `O=C(Nc1cc(F)cc(Oc2ccc3nccnc3c2)c1)c1cccc(F)c1` [Compound C014, 3-fluoro-N-(3-fluoro-5-(quinoxalin-6-yloxy)phenyl)benzamide], for which the negative logarithm of the IC50 (pIC50) with A549 cells and in the experiment with A375 cells was under 5.30 in each case. Also, the inhibition at 1 µM at BRAF V600E fell in the range of 70 to 89%.

Take `CCCS(=O)(=O)Nc1cccc(Oc2ccc3nccnc3c2)c1` [Compound C007, N-(3-(quinoxalin-6-yloxy)phenyl)propane-1-sulfonamide]: the negative logarithm of the IC50 (pIC50) in the experiment with A549 cells and in the experiment on A375 cells was under 5.30 each time.

Take `CCCS(=O)(=O)Nc1ccc(F)c(Oc2ccc3nccnc3c2)c1` [Compound C013, N-(4-fluoro-3-(quinoxalin-6-yloxy)phenyl)propane-1-sulfonamide]: the negative-log IC50 (pIC50) in the experiment on A549 cells and in the experiment with A375 cells was under 5.30 each time.

For the molecule `O=C(Nc1ccc(F)c(Oc2ccc3ncc(N4CCOCC4)nc3c2)c1)c1ccc(Cl)c(C(F)(F)F)c1` [Compound C008, 4-chloro-N-(4-fluoro-3-((3-morpholinoquinoxalin-6-yl)oxy)phenyl)-3-(trifluoromethyl)benzamide], the pIC50 in the experiment on A549 cells is 5.30 to 5.70; with A375 cells it was 5.30 to 6.00.
